A word on the IC50: it is the concentration at which inhibition is half-maximal.

For six compounds, IC50 results are on record in ChEMBL document CHEMBL1135617, “Dicarboxylic acid bis(L-prolyl-pyrrolidine) amides as prolyl oligopeptidase inhibitors” (J Med Chem, 2002).

The target of assay [1] is T1, Prolyl endopeptidase (Sus scrofa, UniProt P23687). In words: In vitro inhibitory activity against prolyl oligopeptidase (POP) from pig brain; value ranges from (7800-54000).
Assay [2] concerns the target T1, Prolyl endopeptidase.
Assay [3] deals with T1, Prolyl endopeptidase. The experiment in a line: In vitro inhibitory activity against prolyl oligopeptidase (POP) from pig brain; value ranges from (72-92).
In assay [4] the target is T1, Prolyl endopeptidase. In words: In vitro inhibitory activity against prolyl oligopeptidase (POP) from pig brain; value ranges from (38-110).
Assay [5] has as its target T1, Prolyl endopeptidase. In words: In vitro inhibitory activity against prolyl oligopeptidase (POP) from pig brain; value ranges from (59 - 100).
In assay [6] the target is T1, Prolyl endopeptidase. In words: In vitro inhibitory activity against prolyl oligopeptidase (POP) from pig brain; value ranges from (44-110).

T1 sequence (P23687 whole entry): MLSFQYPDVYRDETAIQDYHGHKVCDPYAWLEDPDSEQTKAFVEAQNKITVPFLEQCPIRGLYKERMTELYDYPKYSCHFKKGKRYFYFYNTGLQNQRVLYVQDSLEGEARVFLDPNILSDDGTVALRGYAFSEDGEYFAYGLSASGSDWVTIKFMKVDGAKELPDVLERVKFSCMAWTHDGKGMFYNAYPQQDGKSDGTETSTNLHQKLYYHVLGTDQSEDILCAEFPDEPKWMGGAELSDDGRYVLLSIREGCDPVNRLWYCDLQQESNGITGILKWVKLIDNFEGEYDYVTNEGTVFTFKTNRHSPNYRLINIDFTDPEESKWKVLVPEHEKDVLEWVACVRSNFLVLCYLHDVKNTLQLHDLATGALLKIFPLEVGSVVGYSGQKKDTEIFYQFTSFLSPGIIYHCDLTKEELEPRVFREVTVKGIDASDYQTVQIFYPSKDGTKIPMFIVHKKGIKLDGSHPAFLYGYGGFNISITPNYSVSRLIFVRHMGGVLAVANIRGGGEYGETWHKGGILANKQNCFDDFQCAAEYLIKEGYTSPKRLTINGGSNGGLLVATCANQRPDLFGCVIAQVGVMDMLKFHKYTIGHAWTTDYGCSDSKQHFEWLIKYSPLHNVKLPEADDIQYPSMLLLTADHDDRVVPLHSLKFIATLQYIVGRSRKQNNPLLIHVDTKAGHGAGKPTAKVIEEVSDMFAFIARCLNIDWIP

`O=C(C1CCCN1C(=O)c1ccccc1C(=O)N1CCC[C@H]1C(=O)N1CCCC1)N1CCCC1` (stereo partly specified) registered an IC50 on Prolyl endopeptidase [1] of 21000 nM. In other words, the double-digit micromolar range.

On Prolyl endopeptidase [2], `O=C(CO)[C@@H]1CCCN1C(=O)[C@@H]1CCCN1C(=O)c1cccc(C(=O)N2CCCC2C(=O)N2CCCC2)c1` (stereo partly specified) showed an IC50 of 0.39 nM.

`O=C(C1CCCN1C(=O)c1ccc(C(=O)N2CCC[C@H]2C(=O)N2CCCC2)cc1)N1CCCC1` (stereo partly specified): the concentration for half-maximal inhibition (IC50) at Prolyl endopeptidase [3] was 81 nM. This counts as double-digit nanomolar.

Consider `O=C([C@@H]1CCCN1C(=O)c1ccccc1)N1CCCC1`, for which the IC50 against Prolyl endopeptidase [4] was 66 nM. This lies in the double-digit nanomolar range.

Compound `O=C(C1CCCN1C(=O)CCC(=O)N1CCC[C@H]1C(=O)N1CCCC1)N1CCCC1` (stereo partly specified) returned an IC50 against Prolyl endopeptidase [5] of 77 nM.

`O=C(C1CCCN1C(=O)CCCCC(=O)N1CCC[C@H]1C(=O)N1CCCC1)N1CCCC1` (stereo partly specified) returned an IC50 against Prolyl endopeptidase [6] of 68 nM.
